# Experimental data taken from patent US20240316023A1, “BENEDIN, PIPERIDINE, 2-BENZHYDRYL-3-HYDROXY-N-METHYL-, HYDROCHLORIDE AND DERIVATIVES THEREOF FOR USE IN TREATING KLEINE-LEVIN SYNDROME” (priority 2021, published 2024).
# Experiments:
# [1] = tested on: patients with frequent episodes of KLS; details: compared to rest of stimulants; cited from earlier work
# [2] = tested on: Mice, C57BL/6J, male; assay: Novel object recognition (NOR) test, long-term memory; type: in vivo; details: donepezil 2 mg/kg i.p.; 3-days interval
# Method: Long-term episodic memory was tested in the NOR test, using a 3-days interval between the acquisition session (called sample trial) and the retention session (called choice trial). This method allows to detect an improvement of memory in the natural forgetting condition:
# The test was carried out in circular boxes (30 cm diameter, 40 cm high). The objects to be discriminated (L≈1≈h≈3-4 cm) differed in both color and shape and were referred as yellow duck and blue lego. They were fixed with a magnet to the floor of the boxes at 5 cm of the wall, 20 cm distant. Apparently, they have no natural significance for mice and they have never been associated with a reinforcement. In order to rule out the possibility of scent traces left on the objects and therefore the dependency of the recognition capacity of mice on the olfactory cue, the objects and the ground of the box were washed with an odorless disinfectant (Sanicid® diluted in water) and dried between each trial. A camcorder was fixed to the ceiling above the box to record the animals' activity. The experiment was analyzed blindly at a later time.
# On the week before the test, animals were handled by the experimenter in charge of the experiment in order to be not stressed at the time of testing. For this purpose, the experimenter placed a small amount of litter, and then the mouse on its hand. […] The NOR test was completed over five days (see FIG. 1): • Day 1: Habituation trial. Animals were individually placed for a 15-min free exploration session in empty open boxes. • Day 2. Treatment administration and sample trial. […] They were individually placed 30 min after in the apparatus for a 6-min session with two identical objects (Duck, 50% of animals or Lego, 50% of animals). • […]. […]. The mice were individually placed for a 6-min session in the apparatus with two objects (Duck and Lego), one of the objects presented in sample trials (termed as familiar objects) and a novel object (Lego, 50% of animals or Duck, 50% of animals).
# The sample and choice trials were recorded with the camera located above the apparatus. The time spent by mice in exploring the objects was measured during the sample trial and the choice trial.
# Exploration of an object was defined as follows: directing the nose to the object at a distance≤2 cm and/or touching it with the nose or forelimbs: turning around or biting the object, or sitting on the object were not considered as exploratory behavior.
# Data recorded: • L=exploration time of the left object in the sample trial. • R=exploration time of the right object in the sample trial. • N=exploration time of the new object in the choice trial. • F=exploration time of the familiar object in the choice trial. Object recognition task indices include the following parameters: • Exploration indices: • ST=L+R=exploration time (left object+right object) in the sample trial. • CT=N+F=exploration time (new object+familiar object) in the choice trial. • Two memory indices: • N−F=difference of exploration time between the new object and the familiar object in the choice trial.
# Statistical analyses: • Read-outs: DI, N−F, ST, CT, N, F • Unpaired Student's t test: Donep 2 group vs. Control group. • One-way ANOVA, Dunnett test: • Benedin groups vs. Control group. • Benedin groups vs. Donep 2 group. • Read-outs: DI and N−F, for all groups, paired Student's t test, difference vs. 0. • Body weight: one-way ANOVA.
Molecule,response (reducing the number of episodes) [1] [%],"recognition of the familiar object, i.e. memory [2]"
NC12CC3CC(CC(C3)C1)C2 [Amantadine],41,–
Donepezil hydrochloride [reference compound],–,improved the recognition of the familiar object
